Results on 44 molecules are retold here after US4870074A, “Substituted benzamide derivatives, for enhancing gastrointestinal motility” (priority 1986, dated 1989).

The structures appear in SMILES notation.

Data set [1] deals with gastric emptying. Put plainly: Test 1: gastric emptying enhancing activity (phenol red test meal). Type of data set: in vivo, Male Wistar rats. The settings on record: for change in vivo at 2 mg/kg / change in vivo at 0.5 mg/kg / change in vivo at 5 mg/kg / change in vivo at 10 mg/kg / change in vivo at 0.2 mg/kg: po, 0.25 h, 60 min before test meal, rat, read-out: Gastric emptying enhancing activity, Increase (emptying rate vs control); for change in vivo at 2 mg/kg: 2.0 mg/kg p.o.; for change in vivo at 0.5 mg/kg: 0.5 mg/kg p.o.; for change in vivo at 5 mg/kg: 5.0 mg/kg p.o.; for change in vivo at 10 mg/kg: 10.0 mg/kg p.o.; for change in vivo at 0.2 mg/kg: 0.2 mg/kg p.o. The procedure: The test was carried out according to the method of Scarpignato et al. [cf. Arch. int. Pharmacodyn., 246, 286-294 (1980)].
Male Wistar rats, weighing 130-150 g, were fasted for 18 hours before experimentation, and 1.5 ml of a test meal (phenol red 0.05% in a 1.5% aqueous methylcellulose solution) was given by gastric tube. Fifteen minutes after administration of the meal the stomach was removed and the amount of phenol red remaining in the stomach was measured.
The test compounds, dissolved or suspended in a 0.5% tragacanth solution, were orally administered 60 minutes before administration of the test meal. The rate of gastric emptying was calculated according to the amount of phenol red remaining in the stomach, and the activity of the test compounds was expressed in terms of increase in the emptying rate from the control. The number of animals used was 5 for the control and each dose of metoclopramide hydrochloride monohydrate and 4 for each dose of the other test compounds.

For data set [2], the system named is central nervous system. The data set can be described thus: Test 3: effect on the central nervous system (CNS effect), Irwin observation. Particulars: 100 mg/kg, p.o., mouse, 2 hours observation.
Protocol: Male ddY mice, weighing 18-25 g, were used in groups of 3 animals each. […] Psychopharmacologia, 13, 222-227 (1968)], comprehensive observation of behavioral and physiologic states were carried out for 2 hours after the oral treatment with 100 mg/kg of the test compound, dissolved or suspended in a 0.5% tragacanth solution. Liability of the test compounds to the central nervous system effect was expressed with the following marks, according to the total sum of potencies for the individually analyzed effects, such as catalepsy, ptosis, hypolocomotin, etc.

Consider `COc1cc(N)c(Cl)cc1C(=O)NCC1CN(Cc2ccccc2)CCO1` (stereo not drawn) [18(2), 4-amino-N-[(4-benzyl-2-morpholinyl)methyl]-5-chloro-2-methoxybenzamide], for which the change in vivo at 2 mg/kg in data set [1] came out at 39.3%. For the same molecule, the CNS effect entry in data set [2] is on record as “-”.
With `CCOc1cc(N)c(Cl)cc1C(=O)NCC1CN(Cc2ccccc2)CCO1` (stereo not drawn) [63(1), 4-amino-N-[(4-benzyl-2-morpholinyl)methyl]-5-chloro-2-ethoxybenzamide], in data set [1], the change in vivo at 0.5 mg/kg worked out at 33.9% and the change in vivo at 2 mg/kg was found to be 54.4%. In data set [2], the CNS effect entry is “-”.
As for `CCOc1cc(N)c(Cl)cc1C(=O)NCC1CN(Cc2ccccc2Cl)CCO1` (stereo not drawn) [66(1)], in data set [1], the change in vivo at 2 mg/kg came out at 41.3%. Also, in data set [2], the CNS effect result is on record as “-”.
For `CCOc1cc(N)c(Cl)cc1C(=O)NCC1CN(Cc2ccc(Cl)cc2)CCO1` (stereo not drawn) [68(1)], in that order: 62.7% and “-”.
As to `CCOc1cc(N)c(Cl)cc1C(=O)NCC1CN(Cc2cccnc2)CCO1` (stereo not drawn) [80(1)], the change in vivo at 2 mg/kg in data set [1] turned out to be 65.6%. Also, in data set [2], the CNS effect entry is “-”.
Consider `CCN(CC)CCNC(=O)c1cc(Cl)c(N)cc1OC` [A, 4-amino-5-chloro-N-[(2-diethylamino)ethyl]-2-methoxybenzamide, reference compound], for which, in data set [1], the change in vivo at 2 mg/kg is 20.7%, the change in vivo at 5 mg/kg was 25.7% and the change in vivo at 10 mg/kg was 30.7%.
For the molecule `CCN1CCOC(CNC(=O)c2ccccc2OC)C1.O=C(O)/C=C/C(=O)O` (stereo not drawn) [Compound B, N-[(4-Ethyl-2-morpholinyl)methyl]-2-methoxybenzamide fumarate, reference compound], in data set [1] (even at a dose of 10.0 mg/kg p.o.), the “gastric emptying enhancing effect (in words)” value was “did not show any effect”. Also, in data set [1], the change in vivo at 2 mg/kg is 3.8%, the change in vivo at 5 mg/kg was -1.9% and the change in vivo at 10 mg/kg worked out at 2.1%.
On to `CCOc1cc(N)c(Cl)cc1C(=O)NCC1CN(Cc2ccc(F)cc2)CCO1` (stereo not drawn) [Example 1(1), 4-amino-5-chloro-2-ethoxy-N-[[4-(4-fluorobenzyl)-2-morpholinyl]methyl]benzamide], for which, in data set [1], the change in vivo at 0.2 mg/kg worked out at 39.5% and the change in vivo at 2 mg/kg was 49.8%. The CNS effect result in data set [2] is recorded as “-”.
As to `COc1cc(N)c(Cl)cc1C(=O)NCC1CN(Cc2ccc(C#N)cc2)CCO1` (stereo not drawn) [Example 6, 4-amino-5-chloro-N-[[4-(4-cyanobenzyl)-2-morpholinyl]methyl]-2-methoxybenzamide], the change in vivo at 2 mg/kg in data set [1] amounted to 49.2%. The CNS effect result in data set [2] is “-”.
Consider `CCOc1cc(NC(C)=O)c(Cl)cc1C(=O)NCC1CN(Cc2ccc(F)cc2)CCO1` (stereo not drawn) [Example 7, 4-acetylamino-5-chloro-2-ethoxy-N-[[4-(4-fluorobenzyl)-2-morpholinyl]methyl]benzamide], for which the change in vivo at 2 mg/kg in data set [1] turned out to be 74%.
`CCOc1cc(N)c(Cl)cc1C(=O)NCCC1CN(Cc2ccccc2)CCO1` (stereo not drawn) [Example 8, 4-amino-N-[2-(4-benzyl-2-morpholinyl)ethyl]-5-chloro-2-ethoxybenzamide]: the change in vivo at 2 mg/kg in data set [1] is 44.9%. In addition, the CNS effect entry in data set [2] is given as “-”.
For the molecule `CCOc1cc(N)c(Cl)cc1C(=O)NCC1CN(Cc2ccccc2Cl)CC(C)O1` (stereo not drawn) [Example 14, 4-amino-5-chloro-N-[[4-(2-chlorobenzyl)-6-methyl-2-morpholinyl]methyl]-2-ethoxybenzamide], in data set [1], the change in vivo at 2 mg/kg was 47.5%.
Same read-out and setting: then `CCOc1cc(N)c(Cl)cc1C(=O)NCC1CN(Cc2ccccc2)CCCO1` (stereo not drawn) [Example 16, 4-amino-N-[(4-benzyl-hexahydro-1,4-oxazepin-2-yl)methyl]-5-chloro-2-ethoxybenzamide], with 47.3%; and `COc1cc(N)c(Cl)cc1C(=O)NCC1CN(Cc2c(F)c(F)c(F)c(F)c2F)CCO1` (stereo not drawn) [Example 25], with 39.1%.
Same read-out and setting: then `COc1cc(N)c(Cl)cc1C(=O)NCC1CN(Cc2cccc(C(F)(F)F)c2)CCO1` (stereo not drawn) [Example 28], with 42.8%.
Same read-out and setting: then `COc1cc(N)c(Cl)cc1C(=O)NCC1CN(Cc2cccc(C#N)c2)CCO1` (stereo not drawn) [Example 33], with 42.3%; and `COc1cc(N)c(Cl)cc1C(=O)NCC1CN(C(C)c2ccccc2)CCO1` (stereo not drawn) [Example 37], with 42.2%; and `COc1cc(N)c(Cl)cc1C(=O)NCC1CN(CCCOc2ccc(Cl)cc2)CCO1` (stereo not drawn) [Example 52], with 52.5%.
`CCOc1cc(N)c(Cl)cc1C(=O)NCC1CN(Cc2ccccc2F)CCO1` (stereo not drawn) [Example 64]: in data set [1], the change in vivo at 2 mg/kg was 59.9%.
In the case of `CCOc1cc(N)c(Cl)cc1C(=O)NCC1CN(Cc2cccc(F)c2)CCO1` (stereo not drawn) [Example 65], in data set [1], the change in vivo at 2 mg/kg was 54.1%.
For `CCOc1cc(N)c(Cl)cc1C(=O)NCC1CN(Cc2cccc(Cl)c2)CCO1` (stereo not drawn) [Example 67], the change in vivo at 2 mg/kg in data set [1] came out at 57.5%. Moreover, in data set [2], the CNS effect entry was “-”.
For `CCOc1cc(N)c(Cl)cc1C(=O)NCC1CN(Cc2cccc(C(F)(F)F)c2)CCO1` (stereo not drawn) [Example 70], in that order: 57.8% and “-”.
Consider `CCOc1cc(N)c(Cl)cc1C(=O)NCC1CN(Cc2ccc(C#N)cc2)CCO1` (stereo not drawn) [Example 73], for which, in data set [1], the change in vivo at 0.5 mg/kg stood at 44.2% and the change in vivo at 2 mg/kg is 46.2%.
In the case of `CCOc1cc(N)c(Cl)cc1C(=O)NCC1CN(Cc2ccc(Cl)cc2[N+](=O)[O-])CCO1` (stereo not drawn) [Example 74], in data set [1], the change in vivo at 2 mg/kg is 46.7%. Further, in data set [2], the CNS effect result was “-”.
`CCOc1cc(N)c(Cl)cc1C(=O)NCC1CN(CCCCc2ccccc2)CCO1` (stereo not drawn) [Example 76]: the change in vivo at 2 mg/kg in data set [1] worked out at 47.1%.
The same measure, in the same setting: then `CCOc1cc(N)c(Cl)cc1C(=O)NCC1CN(C(C)c2ccccc2)CCO1` (stereo not drawn) [Example 77], with 43.8%.
`CCOc1cc(N)c(Cl)cc1C(=O)NCC1CN(Cc2ccccn2)CCO1` (stereo not drawn) [Example 79]: the change in vivo at 2 mg/kg in data set [1] came to 51%.
Regarding `CCOc1cc(N)c(Cl)cc1C(=O)NCC1CN(Cc2ccncc2)CCO1` (stereo not drawn) [Example 81], the change in vivo at 2 mg/kg in data set [1] came to 52.9%. Also, the CNS effect entry in data set [2] is “-”.
In the case of `CCCOc1cc(N)c(Cl)cc1C(=O)NCC1CN(Cc2ccccc2)CCO1` (stereo not drawn) [Example 86], in data set [1], the change in vivo at 2 mg/kg stood at 55%.
With `CCCCOc1cc(N)c(Cl)cc1C(=O)NCC1CN(Cc2ccccc2)CCO1` (stereo not drawn) [Example 88, 4-amino-N-[(4-benzyl-2-morpholinyl)methyl]-2-butoxy-5-chlorobenzamide], in data set [1], the change in vivo at 0.2 mg/kg is 32.8%, the change in vivo at 0.5 mg/kg stood at 42.9% and the change in vivo at 2 mg/kg turned out to be 53.7%. Also, in data set [2], the CNS effect entry is given as “-”.
`CCCCOc1cc(N)c(Cl)cc1C(=O)NCC1CN(Cc2ccc(F)cc2)CCO1` (stereo not drawn) [Example 89]: the change in vivo at 2 mg/kg in data set [1] worked out at 49.9%. In addition, the CNS effect result in data set [2] is listed as “+”.
For `CCCCOc1cc(N)c(Cl)cc1C(=O)NCC1CN(Cc2ccccc2Cl)CCO1` (stereo not drawn) [Example 90], in that order: 55.4% and “-”.
On to `CC(C)COc1cc(N)c(Cl)cc1C(=O)NCC1CN(Cc2ccccc2)CCO1` (stereo not drawn) [Example 91], for which, in data set [1], the change in vivo at 2 mg/kg was 51.2%. Besides, the CNS effect entry in data set [2] is “-”.
Regarding `CCCCCOc1cc(N)c(Cl)cc1C(=O)NCC1CN(Cc2ccccc2)CCO1` (stereo not drawn) [Example 92], the change in vivo at 2 mg/kg in data set [1] came out at 41%.
For `CC(C)CCOc1cc(N)c(Cl)cc1C(=O)NCC1CN(Cc2ccccc2)CCO1` (stereo not drawn) [Example 93, 4-amino-N-[(4-benzyl-2-morpholinyl)methyl]-5-chloro-2-isopentyloxybenzamide], in data set [1], the change in vivo at 0.5 mg/kg was determined as 46.9% and the change in vivo at 2 mg/kg was determined as 44.2%. In data set [2], the CNS effect result is on record as “-”.
For the molecule `CC(C)CCOc1cc(N)c(Cl)cc1C(=O)NCC1CN(Cc2ccc(F)cc2)CCO1` (stereo not drawn) [Example 94], in data set [1], the change in vivo at 2 mg/kg was 52%. Further, in data set [2], the CNS effect entry is recorded as “-”.
Consider `CC(C)CCOc1cc(N)c(Cl)cc1C(=O)NCC1CN(Cc2ccccc2Cl)CCO1` (stereo not drawn) [Example 95], for which, in data set [1], the change in vivo at 0.2 mg/kg worked out at 34.7% and the change in vivo at 2 mg/kg amounted to 61.6%. Besides, the CNS effect entry in data set [2] is given as “-”.
With `Nc1cc(OCCCl)c(C(=O)NCC2CN(Cc3ccccc3)CCO2)cc1Cl` (stereo not drawn) [Example 102], the change in vivo at 2 mg/kg in data set [1] came out at 46.8%.
On the same count and under the same terms, next, `Nc1cc(OCC2CC2)c(C(=O)NCC2CN(Cc3ccccc3)CCO2)cc1Cl` (stereo not drawn) [Example 111]: 48.7%.
On the same count and under the same terms, then `C=CCOc1cc(N)c(Cl)cc1C(=O)NCC1CN(Cc2ccccc2)CCO1` (stereo not drawn) [Example 115], with 45.6%.
As for `C#CCOc1cc(N)c(Cl)cc1C(=O)NCC1CN(Cc2ccccc2)CCO1` (stereo not drawn) [Example 120], the change in vivo at 2 mg/kg in data set [1] is 40.6%.
Same read-out and setting: then `COc1cc(N(C)C)c(Cl)cc1C(=O)NCC1CN(Cc2ccccc2)CCO1` (stereo not drawn) [Example 130], with 51.8%; and `CCOc1cc(N(C)C)c(Cl)cc1C(=O)NCC1CN(Cc2ccccc2)CCO1` (stereo not drawn) [Example 132], with 50.6%; and `CCOc1cc(N)c(Cl)cc1C(=O)NCC1C[N+]([O-])(Cc2ccccc2Cl)CCO1` (stereo not drawn) [Example 244, 4-amino-5-chloro-N-[[4-(2-chlorobenzyl)-2-morpholinyl]methyl]-2-ethoxybenzamide N-oxide], with 51.8%.
